Values after ≈ are worked out from the molar mass of the structure shown.
Columns and labels:
[1] = system: K562/adr (drug-resistant, chronic myeloid leukemia, CML); test: MTT cell growth inhibition, K562/adr leukemia cells, 72 h; format: cell-based; details: K562/ADR
Protocol: (§1) The standard sample of tanshinone I (TA) and the 2-alkyl- or 2-aromatic-substituted tanshinone I derivatives of the present invention are sufficiently dissolved in dimethylsulfoxide to produce a stock solution of 10 mg/mL, which is refrigerated at 4° C. and stored in dark, and is diluted with cell culture medium to a desired concentration prior to experimentation.
(§2) Obtaining 6000 well-growing leukemia cells and inoculating them into wells of a 96-well cell culture plate. The culture medium is the RPMI-1640 cell culture medium containing 10% fetal bovine serum. After adding on the second day the 2-alkyl- or 2-aromatic-substituted tanshinone I derivatives of different concentrations and mixing uniformly, placing the plate in a carbon dioxide cell incubator (5% CO2) at 37° C. and incubated for 72 hours. Then the viable cell concentration is determined by MTT method. In this experiment, the cell viability in control group (not treated with any compound) is set as 100%, and the cell viability (%) after treatment by the compounds and the half maximum inhibitory concentration for the leukemia cell at 72 hours (IC50 value of 72 hours, μg/mL) are calculated.

[2] = system: Kasumi-1 (acute myeloid leukemia M2 type, AML-M2); test: MTT cell growth inhibition, Kasumi-1 leukemia cells, 72 h; format: cell-based; details: Kasumi-1, 72 h
Protocol: as §1, §2

[3] = system: NB4 (acute promyelocytic leukemia, AML); test: MTT cell growth inhibition, NB4 leukemia cells, 72 h; format: cell-based; details: NB4, 72 h
Protocol: as §1, §2

[4] = system: Jurkat (acute lymphoblastic leukemia, ALL); test: MTT cell growth inhibition, Jurkat leukemia cells, 72 h; format: cell-based; details: 72 h
Protocol: as §1, §2

[5] = system: H9 (acute lymphoblastic leukemia, ALL); test: MTT cell growth inhibition, H9 leukemia cells, 72 h; format: cell-based; details: H9, 72 h
Protocol: as §1, §2

[6] = system: RPMI8226 (multiple myeloma); test: MTT cell growth inhibition, RPMI8226 multiple myeloma cells, 72 h; format: cell-based, human; details: RPMI 8226, 72 h
Protocol: as §1, §2

[7] = system: A549 (human lung cancer); test: MTT cell growth inhibition, A549 cells, 72 h; format: cell-based; details: A549, 72 h
Protocol: as §1, with “with a” for “with”, “to the” for “to a”
(§3) Obtaining 6000 well-growing human solid tumor cells and inoculating them into wells of a 96-well cell culture plate. The culture medium is DMEM High Glucose cell culture medium containing 10% fetal bovine serum. The plate is placed in a carbon dioxide cell incubator (5% CO2) at 37° C. and incubated for 24 hours. After adding the 2-alkyl- or 2-aromatic-substituted tanshinone I derivatives of different concentrations and mixing uniformly, the plate is placed in a carbon dioxide cell incubator (5% CO2) at 37° C. and incubated for 72 hours. Then the viable cell concentration is determined by MTT method. In this experiment, the cell viability in control group (not treated with any compound) is set as 100%, and the cell viability (%) after treatment by the compounds and the half maximum inhibitory concentration for the leukemia cell at 72 hours (IC50 value of 72 hours, μg/mL) are calculated.

[8] = system: PANC-1 (pancreatic cancer); test: MTT cell growth inhibition, PANC-1 cells, 72 h; format: cell-based, human; details: PANC-1, 72 h
Protocol: as §1, with “with a” for “with”, “to the” for “to a”
as §3

[9] = system: Becap37 (human breast cancer cell); test: MTT cell growth inhibition, Becap37 cells, 72 h; format: cell-based; details: Becap-37, 72 h
Protocol: as §1, with “with a” for “with”, “to the” for “to a”
as §3

[10] = system: MG63 (osteosarcoma); test: MTT cell growth inhibition, MG63 cells, 72 h; format: cell-based, human; details: MG-63, 72 h
Protocol: as §1, with “with a” for “with”, “to the” for “to a”
as §3

[11] = system: Hep G2 (human liver cancer cell); test: MTT cell growth inhibition, Hep G2 cells, 72 h; format: cell-based; details: Hep G2, 72 h
Protocol: as §1, with “with a” for “with”, “to the” for “to a”
as §3

[12] = system: RKO (human colon adenocarcinoma cell); test: MTT cell growth inhibition, RKO cells, 72 h; format: cell-based; details: RKO, 72 h
Protocol: as §1, with “with a” for “with”, “to the” for “to a”
as §3

[13] = system: U87 MG (malignant glioma cell); test: MTT cell growth inhibition, U87 MG cells, 72 h; format: cell-based, human; details: U87-MG, 72 h
Protocol: as §1, with “with a” for “with”, “to the” for “to a”
as §3

[14] = system: Hela (human cervical cancer cell); test: MTT cell growth inhibition, Hela cells, 72 h; format: cell-based; details: Hela, 72 h
Protocol: as §1, with “with a” for “with”, “to the” for “to a”
as §3

[15] = system: CaES-17 (esophageal cancer cell); test: MTT cell growth inhibition, CaES-17 cells, 72 h; format: cell-based, human; details: CaEs-17, 72 h
Protocol: as §1, with “with a” for “with”, “to the” for “to a”
as §3

[16] = system: CNE (nasopharyngeal carcinoma cell); test: MTT cell growth inhibition, CNE cells, 72 h; format: cell-based, human; details: CNE, 72 h
Protocol: as §1, with “with a” for “with”, “to the” for “to a”
as §3

[17] = system: Hep-2 (laryngeal carcinoma); test: MTT cell growth inhibition, Hep-2 cells, 72 h; format: cell-based, human; details: Hep-2, 72 h
Protocol: as §1, with “with a” for “with”, “to the” for “to a”
as §3

[18] = system: MGC 803 (human gastric cancer cell); test: MTT cell growth inhibition, MGC 803 cells, 72 h; format: cell-based; details: MGC-803, 72 h
Protocol: as §1, with “with a” for “with”, “to the” for “to a”
as §3

[19] = system: PC-3 (prostate cancer); test: MTT cell growth inhibition, PC-3 cells, 72 h; format: cell-based, human; details: PC-3, 72 h
Protocol: as §1, with “with a” for “with”, “to the” for “to a”
as §3

[20] = system: SK-OV-3 (ovarian cancer cell); test: MTT cell growth inhibition, SK-OV-3 cells, 72 h; format: cell-based, human; details: SK-OV-3, 72 h
Protocol: as §1, with “with a” for “with”, “to the” for “to a”
as §3

[21] = system: Hep G2 cells; details: in vitro, literature report; cited from earlier work
[22] = system: tumor-bearing nude mice; details: literature report; cited from earlier work
[23] = system: SGC-7901 human gastric adenocarcinoma cells; details: concentration dependent within a certain range, literature report; cited from earlier work
[24] = background statement; cited from earlier work
[25] = background statement; cited from earlier work; remark: listed apart in the source

IC50 [1]: 0.88 µg/mL (≈ 3.19 µM)
IC90 [1]: 4.17 µg/mL (≈ 15.1 µM)
IC50 [2]: 0.99 µg/mL (≈ 3.58 µM)
IC90 [2]: 3.62 µg/mL (≈ 13.1 µM)
IC50 [3]: 0.98 µg/mL (≈ 3.55 µM)
IC90 [3]: 2.5 µg/mL (≈ 9.05 µM)
IC50 [4]: 1.74 µg/mL (≈ 6.3 µM)
IC90 [4]: 8.42 µg/mL (≈ 30.5 µM)
IC50 [5]: 3.5 µg/mL (≈ 12.7 µM)
IC90 [5]: 13.06 µg/mL (≈ 47.3 µM)
IC50 [6]: 0.96 µg/mL (≈ 3.47 µM)
IC90 [6]: 10.86 µg/mL (≈ 39.3 µM)
IC50 [7]: 4.03 µg/mL (≈ 14.6 µM)
IC90 [7]: 17.29 µg/mL (≈ 62.6 µM)
IC50 [8]: 2.7 µg/mL (≈ 9.77 µM)
IC90 [8]: >16 µg/mL
IC50 [9]: 3.03 µg/mL (≈ 11 µM)
IC90 [9]: >16 µg/mL
IC50 [10]: 0.96 µg/mL (≈ 3.47 µM)
IC90 [10]: >16 µg/mL
IC50 [11]: 2.19 µg/mL (≈ 7.93 µM)
IC90 [11]: 22.13 µg/mL (≈ 80.1 µM)
IC50 [12]: 1.83 µg/mL (≈ 6.62 µM)
IC90 [12]: >16 µg/mL
IC50 [13]: 6.36 µg/mL (≈ 23 µM)
IC90 [13]: 14.63 µg/mL (≈ 53 µM)
IC50 [14]: 4 µg/mL (≈ 14.5 µM)
IC90 [14]: >16 µg/mL
IC50 [15]: 3.18 µg/mL (≈ 11.5 µM)
IC90 [15]: 16.00 µg/mL (≈ 57.9 µM)
IC50 [16]: 7.4 µg/mL (≈ 26.8 µM)
IC90 [16]: >16 µg/mL
IC50 [17]: 3.15 µg/mL (≈ 11.4 µM)
IC90 [17]: >16 µg/mL
IC50 [18]: 1.62 µg/mL (≈ 5.86 µM)
IC90 [18]: 9.26 µg/mL (≈ 33.5 µM)
IC50 [19]: 6.63 µg/mL (≈ 24 µM)
IC90 [19]: 10.57 µg/mL (≈ 38.3 µM)
IC50 [20]: >16 µg/mL
IC90 [20]: >16 µg/mL
Compound: Cc1coc2c1C(=O)C(=O)c1c-2ccc2c(C)cccc12 [TA, 1,6-dimethyl-phenanthreno [1,2-b]furan-10,11-diketone, reference compound]
effect on proliferation of Hep G2 cells [21]: can inhibit the proliferation of Hep G2 cells
effect on tumor growth in tumor-bearing nude mice [22]: can inhibit the tumor growth in the mice
effect on growth of SGC-7901 cells cultured in vitro [23]: significant inhibitory effect
solubility in water [24]: poor solubility in water
in vivo bioavailability [25]: low in vivo bioavailability
